From patent publication US6827949B2, “Wood preservative” (Takeda Chemical Industries, Ltd., priority 2001, dated 2004)

Tests used:
[1] = system: spore mixture of Aspergillus niger, Penicillin funculosum, Aureobasidium pullulans and Gliocladium virens; assay: Woodstaining fungal growth inhibition test; format: cell-based; parameters: key: 0: No fungal growth; 1: Fungal growth; details: filter paper immersed in 5 w/w % acetone solution, sprayed with spore mixture, 2% agar; Control 1
From the text: In the solution, a No.2 filter paper of 1×1 cm in size was immersed, taken out and then air-dried.
Aureobasidium pullulans and […]

[2] = system: worker ants of Coptotermes formosanus; assay: Damage (ingestion) inhibition test (filter paper); format: in vivo; parameters: key: 0: No damage; 1: Damage of ½ or less; 2: Damage of ½ to ¾; 3: Damage of ¾ with some remainder; 4: Complete damage; details: filter paper immersed in 1 w/w % solution in acetone (hispidin in methanol); 100 worker ants; Control 4
Description: A 1 w/w % solution of each compound shown in Table 7 in acetone (except for hispidin which was prepared as a 1 w/w % solution in methanol) was prepared.
In this solution, a No.2 filter paper of 1×1 cm in size was immersed, taken out and then air-dried. It was then placed in a 11-K bottle in which 100 worker ants of Coptotermes formosanus had been kept, and the ingestion behavior was observed. Hispidin employed was a reagent produced by Calbiochem.

Fomitopsis palustris = assay: Wood-decaying fungal growth inhibition test; format: cell-based; parameters: key: 0: No growth; 1: Fungal growth; details: filter paper immersed in 5 w/w % acetone solution, placed on Fomitopsis palustris on PDA medium; Control 1
From the text: A No.2 filter paper of 1×1 cm in size was immersed in the solution, taken out and then air-dried. The filter was then placed on a Fomitopsis palustris which had been cultivated on a PDA medium in a petri dish and observed conditions of fungal growth for 8 weeks.

SMILES | Fungal growth after 3 days [1] | Damage degree after 1 week [2] | Fungal growth after 8 weeks (Fomitopsis palustris)
COC1=CC(=O)O[C@@H](/C=C/c2ccc3c(c2)OCO3)C1 [Methysticin] | 0 | 0 | 0
COC1=CC(=O)O[C@@H](CCc2ccc3c(c2)OCO3)C1 [7,8-Dihydromethysticin] | 0 | 0 | 0
COC1=CC(=O)O[C@@H](CCc2ccccc2)C1 [7,8-Dihydrokawain] | 0 | 0 | 0
O=c1cc(O)cc(/C=C/c2ccc(O)c(O)c2)o1 [Hispidin, reference compound] | – | 1 | –
COC1=CC(=O)O[C@@H](/C=C/c2ccccc2)C1 [Kawain] | 0 | 1 | 0
COc1cc(/C=C/c2ccccc2)oc(=O)c1 [5,6-Dehydrokawain] | 0 | 1 | 0
COc1ccc(/C=C/c2cc(OC)cc(=O)o2)cc1 [Yangonin] | 0 | 1 | 0
COC1=CC(=O)OC(CCc2ccc(OC)cc2)C1 (stereo not shown) [5,6,7,8-Tetrahydroyangonin] | 0 | 0 | 0
